Test results from patent US11505523B2, “HDAC8 inhibitors for treating cancer” (City of Hope, priority 2013, dated 2022).
“And” between values parts separate entries of the source, which are not always exact repeats. Equal entries are not always repeated.

How the values were obtained:
HeLa nuclear HDACs = assay: Inhibition of HeLa nuclear HDACs (HeLa nuclear extract, mainly HDACs1-3); format: biochemical; conditions: read-out: HeLa HDAC IC50
HDAC8 = HDAC8 (Homo sapiens (Human), UniProt Q9BY41); assay: Inhibition of HDAC8; format: biochemical; conditions: for IC50 PCI34051/IC50 compound: inhibition of HDAC8, relative potency (Tables 1-3); for A (relative potency to PCI34051): inhibition of HDAC8, footnote: (Tables 11-13); for IC50: mean SD of three determinations; for HDAC8 inhibitory activity compared with PCI34051: result in words
Chain of HDAC8 (Q9BY41 whole entry): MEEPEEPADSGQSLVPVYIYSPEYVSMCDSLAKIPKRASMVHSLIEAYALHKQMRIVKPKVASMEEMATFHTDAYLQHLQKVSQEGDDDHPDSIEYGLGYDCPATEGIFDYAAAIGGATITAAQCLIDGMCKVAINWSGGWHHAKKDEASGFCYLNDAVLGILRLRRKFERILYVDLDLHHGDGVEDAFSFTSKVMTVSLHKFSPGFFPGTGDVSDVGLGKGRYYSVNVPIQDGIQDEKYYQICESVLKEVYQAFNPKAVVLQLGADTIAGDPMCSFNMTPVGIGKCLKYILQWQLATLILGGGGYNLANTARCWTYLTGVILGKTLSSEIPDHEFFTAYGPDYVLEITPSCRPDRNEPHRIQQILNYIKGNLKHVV

MOLM13 cells [1] = assay: Proliferation of MOLM13 cells, luminescent cell viability assay; format: cell-based, human; conditions: Homo sapiens, read-out: MOLM13 Proliferation IC50
MV4-11 cells [2] = assay: Proliferation of MV4-11 cells, luminescent cell viability assay; format: cell-based, human; conditions: Homo sapiens, read-out: MV4-11 Proliferation IC50
MOLM13 cells [3] = assay: Survival/apoptosis of MOLM13 AML cells by Annexin V labeling; format: cell-based, human; conditions: Homo sapiens, read-out: MOLM13 Apoptosis IC50
OCI-AML3 cells = assay: Survival/apoptosis of OCI-AML3 AML cells by Annexin V labeling; format: cell-based, human; conditions: Homo sapiens, OCI-AML-3, 48 h, read-out: OCI-AML3 Apoptosis IC50
MV4-11 cells [4] = assay: Survival/apoptosis of MV4-11 AML cells by Annexin V labeling; format: cell-based, human; conditions: Homo sapiens, read-out: MV4-11 Apoptosis IC50
H1299 cells = assay: Cytotoxicity / anti-proliferative activity in H1299 lung cancer cells; conditions: read-out: Cytotoxicity IC50 H1299; mean SD of three determinations
Cl1-1 cells = assay: Cytotoxicity / anti-proliferative activity in CL1-1 lung cancer cells; conditions: read-out: Cytotoxicity IC50 Cl1-1; mean SD of three determinations
CL1-5 cells = assay: Cytotoxicity / anti-proliferative activity in CL1-5 lung cancer cells; conditions: read-out: Cytotoxicity IC50 Cl1-5; mean SD of three determinations

SMILES | IC50 (HeLa nuclear HDACs) [µM] | IC50 PCI34051/IC50 compound (HDAC8) | A (relative potency to PCI34051) (HDAC8) | IC50 (HDAC8) | other results
COc1ccc(/C=C/C(=O)NO)c(-c2cc(OC)c(OC)c(OC)c2)c1 [Compound 5a] | > 10 | 0.29 | 0.29 | – | –
COc1ccc(/C=C/C(=O)NO)c(-c2cccs2)c1 [Compound 5b] | > 10 | 1.43 | 1.43 | – | IC50 (MOLM13 cells [1]; MOLM-13, 48 h): 0.0533 µM; IC50 (MV4-11 cells [2]; MV4-11, 48 h): 0.0825 µM; IC50 (MOLM13 cells [3]; MOLM-13, 48 h): 0.345 µM; IC50 (OCI-AML3 cells): 2.35 µM; IC50 (MV4-11 cells [4]; MV4-11, 48 h): 0.524 µM
COc1ccc(/C=C/C(=O)NO)c(-c2cccc(Cl)c2)c1 [Compound 5c] | > 10 | 1.17 | 1.17 | – | –
COc1ccc(/C=C/C(=O)NO)c(-c2ccc(F)cc2)c1 [Compound 5d] | > 10 | 1.90 | 1.90 | – | –
COc1ccc(/C=C/C(=O)NO)c(-c2ccc3c(c2)OCO3)c1 [Compound 5e] | 8.55 ± 0.00012 | 1.86 | 1.86 | – | IC50 (MOLM13 cells [1]; MOLM-13, 48 h): 3.36 µM; IC50 (MV4-11 cells [2]; MV4-11, 48 h): 7.49 µM; IC50 (MOLM13 cells [3]; MOLM-13, 48 h): 11.7 µM; IC50 (OCI-AML3 cells): 12.5 µM; IC50 (MV4-11 cells [4]; MV4-11, 48 h): 11.9 µM
COc1ccc(/C=C/C(=O)NO)c(-c2cccc3[nH]ccc23)c1 [Compound 5f] | > 10 | 0.64 | 0.64 | – | –
COc1ccc(/C=C/C(=O)NO)c(-c2cncc3ccccc23)c1 [Compound 5g] | 0.7984 ± 0.0003 | 0.28 | 0.28 | – | –
COc1ccc(/C=C/C(=O)NO)c(-c2cnc3ccccc3c2)c1 [Compound 5h] | 0.836 ± 0.0091 | 0.63 | 0.63 | – | IC50 (MOLM13 cells [1]; MOLM-13, 48-hr, luminescent cell viability assay): 7.17 µM; IC50 (MV4-11 cells [2]; MV4-11, 48-hr, luminescent cell viability assay): 16.6 µM; IC50 (MOLM13 cells [3]; MOLM-13, 48-hr, Annexin V labeling): 90.9 µM; IC50 (MV4-11 cells [4]; MV4-11, 48-hr, Annexin V labeling): ~22700 µM
COc1ccc(/C=C/C(=O)NO)c(Nc2ccccc2)c1 [Compound 6a] | > 10 | 0.40 | 0.40 | – | –
COc1ccc(/C=C/C(=O)NO)c(Nc2ccccc2OC)c1 [Compound 6b] | > 10 | 0.17 | 0.17 | – | –
COc1cccc(Nc2cc(OC)ccc2/C=C/C(=O)NO)c1 [Compound 6c] | > 10 | 0.44 | 0.44 | – | –
COc1ccc(Nc2cc(OC)ccc2/C=C/C(=O)NO)cc1 [Compound 6d] | > 10 | 0.30 | 0.30 | – | –
COc1ccc(/C=C/C(=O)NO)c(Nc2ccc(OC)c(OC)c2)c1 [Compound 6e] | > 10 | 0.44 | 0.44 | – | –
COc1ccc(/C=C/C(=O)NO)c(Nc2cc(OC)c(OC)c(OC)c2)c1 [Compound 6f] | > 10 | 0.24 | 0.24 | – | –
COc1ccc(/C=C/C(=O)NO)c(OCc2ccccc2)c1 [Compound 13a, (E)-N-Hydroxy-2-benzyloxy-4-methoxycinnamide] | > 10 | – | – | 0.207 ± 0.0134 µM | –
COc1ccc(/C=C/C(=O)NO)c(OCc2ccc(Br)cc2)c1 [Compound 13c, (E)-N-Hydroxy-2-(4-bromobenzyloxy)-4-methoxycinnamide] | > 10 | – | – | – | –
COc1ccc(COc2cc(OC)ccc2/C=C/C(=O)NO)cc1 [Compound 13d, (E)-N-Hydroxy-2-(4-methoxybenzyloxy)-4-methoxycinnamide] | > 10 | – | – | 0.397 ± 0.0127 µM | –

SMILES | IC50 (HeLa nuclear HDACs) [µM] | IC50 PCI34051/IC50 compound (HDAC8) | A (relative potency to PCI34051) (HDAC8) | IC50 (HDAC8) | other results
COc1cc(Nc2cc(F)ccc2/C=C/C(=O)NO)cc(OC)c1OC [Compound 15a] | > 10 | 0.38 | 0.38 | – | –
COc1cc(Nc2cc(C(F)(F)F)ccc2/C=C/C(=O)NO)cc(OC)c1OC [Compound 15b] | > 10 | 0.55 | 0.55 | – | –
COc1cc(Nc2c(/C=C/C(=O)NO)ccc(OC)c2OC)cc(OC)c1OC [Compound 15d] | > 10 | 0.44 | 0.44 | – | –
COc1ccc(OCCOc2cc(OC)ccc2/C=C/C(=O)NO)cc1 [Compound 18a, (E)-N-Hydroxy-2-(2-(4-methoxyphenoxyoxy)ethoxy)-4-methoxycinnamide] | > 10 | – | – | 0.122 ± 0.0035 µM | –
COc1ccc(OC(C)COc2cc(OC)ccc2/C=C/C(=O)NO)cc1 (stereo not shown) [Compound 18b, (E)-N-Hydroxy-2-(2-(4-methoxyphenoxyoxy)propoxy)-4-methoxycinnamide] | > 10 | – | – | 0.191 ± 0.0022 µM | –
CCCC(COc1cc(OC)ccc1/C=C/C(=O)NO)Oc1ccc(OC)cc1 (stereo not shown) [Compound 18d, (E)-N-Hydroxy-2-(2-(4-methoxyphenoxyoxy)pentyloxy)-4-methoxycinnamide] | > 10 | – | – | 0.2 ± 0.0065 µM | –
COc1cc(Nc2ncccc2/C=C/C(=O)NO)cc(OC)c1OC [Compound 21] | > 10 | 0.68 | 0.68 | – | –
COc1ccc(/C=C/C(=O)NO)c(-c2ccccc2)c1 [Compound 22a, (E)-N-Hydroxy-4-methoxy-2-phenylcinnamide] | > 10 | – | – | 0.072 µM and 0.0724 µM | –
COc1ccc(/C=C/C(=O)NO)c(-c2cccc3ccccc23)c1 [Compound 22c, (E)-N-Hydroxy-4-methoxy-2-(naphthalen-1-yl)cinnamide] | > 10 | – | – | 0.078 ± 0.0043 µM | –
COc1ccc(/C=C/C(=O)NO)c(-c2ccc(Oc3ccccc3)cc2)c1 [Compound 22e, (E)-N-Hydroxy-4-methoxy-2-(4-phenoxyphenyl)cinnamide] | > 10 | – | – | 0.174 ± 0.0059 µM | fold less potent than 22a (HDAC8) (HDAC8): three
COc1ccc(/C=C/C(=O)NO)c(-c2ccc(C(=O)c3ccccc3)cc2)c1 [Compound 22f, (E)-N-Hydroxy-4-methoxy-2-(4-benzoylphenyl)cinnamide] | > 10 | – | – | 0.0418 ± 0.0033 µM | IC50 (H1299 cells): 0.0084 ± 0.0002 µM; HDAC8 inhibitory activity compared with PCI34051 (HDAC8): superior to PCI34051; IC50 (Cl1-1 cells): > 0.01 µM; IC50 (CL1-5 cells): > 0.01 µM
COc1ccc(/C=C/C(=O)NO)c(-c2cccc3c2oc2ccccc23)c1 [Compound 22g, (E)-N-Hydroxy-4-methoxy-2-(dibenzofuran-4-yl)cinnamide] | > 10 | – | – | 0.0477 ± 0.0007 µM | IC50 (H1299 cells): 0.0066 ± 0.0007 µM; HDAC8 inhibitory activity compared with PCI34051 (HDAC8): superior to PCI34051; IC50 (Cl1-1 cells): 0.0085 ± 0.0012 µM; IC50 (CL1-5 cells): 0.0087 ± 0.0001 µM
COc1ccc(/C=C/C(=O)NO)c(Oc2cc(OC)c(OC)c(OC)c2)c1 [Compound 25] | > 10 | 0.49 | 0.49 | – | –
CCCOc1ccc(/C=C/C(=O)NO)c(-c2ccccc2)c1 [Compound 27a, (E)-N-Hydroxy-4-propoxy-2-phenylcinnamide] | > 10 | – | – | 0.133 ± 0.0126 µM | –
CCCCOc1ccc(/C=C/C(=O)NO)c(-c2ccccc2)c1 [Compound 27b, (E)-N-Hydroxy-4-butoxy-2-phenylcinnamide] | > 10 | – | – | 0.289 ± 0.0301 µM | –
CCCCCOc1ccc(/C=C/C(=O)NO)c(-c2ccccc2)c1 [Compound 27c, (E)-N-Hydroxy-4-pentoxy-2-phenylcinnamide] | > 10 | – | – | 0.186 ± 0.0598 µM | –
O=C(/C=C/c1ccc(-c2ccccc2)cc1-c1ccccc1)NO [Compound 27d, (E)-N-Hydroxy-2,4-diphenylcinnamide] | > 10 | – | – | 0.1749 ± 0.0002 µM | –
